The record followed here is patent US8461339B2, “Pharmaceutical compounds” (Sentinel Oncology Limited, priority 2008, dated 2013).

One test has as its target T1, Flt4 (h) (Homo sapiens, UniProt P35916).
T1 construct: purchased Millipore
Kind of test: Kinase inhibition assay, Flt4 (h) (Millipore, 33P-ATP filter assay). In kind it is biochemical. The protocol:
(§1) Compounds of the invention can be screened for activity against a range of protein kinases using the assays set out below. Kinase inhibition assays were carried out by Millipore, Dundee Technology Park, Dundee, UK.
(§2) In a final reaction volume of 25 μL, Flt4 (h) (5-10 mU) is incubated with 8 mM MOPS pH 7.0, 0.2 mM EDTA, 500 μM GGEEEEYFELVKKKK, 10 mM MgAcetate and [[…]-33P-ATP] (specific activity approx. 500 cpm/pmol, concentration as required). The reaction is initiated by the addition of the MgATP mix. After incubation for 40 minutes at room temperature, the reaction is stopped by the addition of 5 μL of a 3% phosphoric acid solution. 10 μL of the reaction is then spotted onto a P30 filtermat and washed three times for 5 minutes in 75 mM phosphoric acid and once in methanol prior to drying and scintillation counting.

For another test, the target named is T2, Yes (h) (Homo sapiens, UniProt P07947).
T2 construct: purchased Millipore
T2 sequence (P07947 whole entry): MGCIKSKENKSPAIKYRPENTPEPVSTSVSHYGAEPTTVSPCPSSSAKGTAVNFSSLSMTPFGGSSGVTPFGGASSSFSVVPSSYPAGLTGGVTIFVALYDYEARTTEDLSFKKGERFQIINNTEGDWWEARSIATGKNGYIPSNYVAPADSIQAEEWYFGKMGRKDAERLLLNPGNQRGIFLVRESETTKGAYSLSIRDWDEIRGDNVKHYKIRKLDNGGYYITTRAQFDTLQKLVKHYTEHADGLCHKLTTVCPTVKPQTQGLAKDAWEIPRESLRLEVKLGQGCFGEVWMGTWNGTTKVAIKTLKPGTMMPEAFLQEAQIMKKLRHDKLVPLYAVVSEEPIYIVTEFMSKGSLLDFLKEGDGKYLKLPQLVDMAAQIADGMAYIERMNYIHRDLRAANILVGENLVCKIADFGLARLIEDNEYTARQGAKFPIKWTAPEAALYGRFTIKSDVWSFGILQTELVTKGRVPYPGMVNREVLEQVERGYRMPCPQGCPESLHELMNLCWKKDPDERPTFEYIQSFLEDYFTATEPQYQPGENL
Kind of test: Kinase inhibition assay, Yes (h) (Millipore, 33P-ATP filter assay). It is filed as biochemical. To be noted: read-out: IC50 against Yes kinase. Here is the method: as §1
as §2, with “μl, Yes” for “μL, Flt4”, “0.1 mg/ml poly(Glu, Tyr) 4:1,” for “500 μM GGEEEEYFELVKKKK,”, “[γ-33P-ATP]” for “[[…]-33P-ATP]”, “μl” for “μL”, “Filtermat A” for “P30 filtermat”

The next test concerns HCT116 cells. As to the kind of experiment: Anti-proliferative activity, Alamar Blue assay. It is filed as cell-based. To be noted: Homo sapiens, HCT-116, 72 h incubation, read-out: cell proliferation IC50. Here is the method:
The anti-proliferative activities of compounds of the invention are determined by measuring the ability of the compounds to inhibition of cell growth in a number of cell lines. Inhibition of cell growth is measured using the Alamar Blue assay
The following protocol was used: • 1) HT29, HCT116 or Colo205 cells were seeded at an appropriate density and allowed to adhere overnight. • 2) Test compounds were prepared from 10 mM DMSO stocks to give a final concentration range as shown on the graphs. DMSO was constant throughout each experiment. • 3) Test compounds were incubated with the cells for 72 h at 37° C. 5% CO2 in a humidified atmosphere. • 4) Alamar blue 10% (v/v) was then added and incubated for a further 6 h, and fluorescent product detected using the BMG FLUOstar plate reader. • 5) Data was analysed using a 4-parameter logistic equation in Graph Pad Prism.

A further test deals with T3, KDR (h) (Homo sapiens, UniProt P35968).
T3 construct: purchased Millipore
T3 sequence (P35968 20-1356): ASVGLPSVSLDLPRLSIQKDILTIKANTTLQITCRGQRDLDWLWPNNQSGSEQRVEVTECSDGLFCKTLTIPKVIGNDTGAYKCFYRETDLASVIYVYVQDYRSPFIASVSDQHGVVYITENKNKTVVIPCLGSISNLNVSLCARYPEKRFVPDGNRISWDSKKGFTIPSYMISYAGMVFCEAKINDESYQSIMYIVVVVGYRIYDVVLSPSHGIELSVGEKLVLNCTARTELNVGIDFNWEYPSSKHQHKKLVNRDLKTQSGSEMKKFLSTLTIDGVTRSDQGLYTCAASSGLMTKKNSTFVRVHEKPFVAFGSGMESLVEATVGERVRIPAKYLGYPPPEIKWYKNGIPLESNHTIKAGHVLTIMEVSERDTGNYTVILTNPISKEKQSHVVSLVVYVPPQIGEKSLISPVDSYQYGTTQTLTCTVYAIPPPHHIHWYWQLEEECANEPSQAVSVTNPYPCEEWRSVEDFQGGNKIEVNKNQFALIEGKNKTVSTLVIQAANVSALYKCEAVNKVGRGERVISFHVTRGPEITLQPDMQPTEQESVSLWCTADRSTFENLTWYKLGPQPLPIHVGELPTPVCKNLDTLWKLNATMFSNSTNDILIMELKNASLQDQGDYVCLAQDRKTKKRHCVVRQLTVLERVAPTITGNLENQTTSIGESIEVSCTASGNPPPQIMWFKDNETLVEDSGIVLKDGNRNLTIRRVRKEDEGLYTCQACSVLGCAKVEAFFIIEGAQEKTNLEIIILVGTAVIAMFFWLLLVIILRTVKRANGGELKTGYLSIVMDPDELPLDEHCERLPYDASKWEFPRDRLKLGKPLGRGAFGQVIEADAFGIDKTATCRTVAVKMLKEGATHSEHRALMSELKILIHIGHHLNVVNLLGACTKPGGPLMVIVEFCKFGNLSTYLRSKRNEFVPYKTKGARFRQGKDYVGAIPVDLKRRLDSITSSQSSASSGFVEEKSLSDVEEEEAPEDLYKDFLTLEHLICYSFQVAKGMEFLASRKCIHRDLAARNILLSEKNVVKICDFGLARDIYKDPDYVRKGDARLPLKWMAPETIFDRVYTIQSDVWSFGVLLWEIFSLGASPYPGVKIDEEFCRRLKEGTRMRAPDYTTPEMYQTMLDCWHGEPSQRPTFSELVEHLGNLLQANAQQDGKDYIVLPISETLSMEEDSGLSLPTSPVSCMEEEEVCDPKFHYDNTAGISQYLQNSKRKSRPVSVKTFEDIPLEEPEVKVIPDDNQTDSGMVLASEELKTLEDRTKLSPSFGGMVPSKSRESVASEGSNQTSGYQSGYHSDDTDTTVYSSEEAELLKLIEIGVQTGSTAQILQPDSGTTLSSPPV
Kind of test: Kinase inhibition assay, KDR (h) (Millipore, 33P-ATP filter assay). The conditions noted are these: read-out: IC50 against KDR kinase. It is filed as biochemical. The protocol: as §1
as §2, with “KDR” for “Flt4”, “0.33 mg/mL myelin basic protein,” for “500 μM GGEEEEYFELVKKKK,”, “Mg Acetate” for “MgAcetate”, “[γ-33P-ATP]” for “[[…]-33P-ATP]”

The target of the next test is T4, Flt3 (h) (Homo sapiens, UniProt P36888).
T4 construct: purchased Millipore
T4 sequence (P36888 27-993): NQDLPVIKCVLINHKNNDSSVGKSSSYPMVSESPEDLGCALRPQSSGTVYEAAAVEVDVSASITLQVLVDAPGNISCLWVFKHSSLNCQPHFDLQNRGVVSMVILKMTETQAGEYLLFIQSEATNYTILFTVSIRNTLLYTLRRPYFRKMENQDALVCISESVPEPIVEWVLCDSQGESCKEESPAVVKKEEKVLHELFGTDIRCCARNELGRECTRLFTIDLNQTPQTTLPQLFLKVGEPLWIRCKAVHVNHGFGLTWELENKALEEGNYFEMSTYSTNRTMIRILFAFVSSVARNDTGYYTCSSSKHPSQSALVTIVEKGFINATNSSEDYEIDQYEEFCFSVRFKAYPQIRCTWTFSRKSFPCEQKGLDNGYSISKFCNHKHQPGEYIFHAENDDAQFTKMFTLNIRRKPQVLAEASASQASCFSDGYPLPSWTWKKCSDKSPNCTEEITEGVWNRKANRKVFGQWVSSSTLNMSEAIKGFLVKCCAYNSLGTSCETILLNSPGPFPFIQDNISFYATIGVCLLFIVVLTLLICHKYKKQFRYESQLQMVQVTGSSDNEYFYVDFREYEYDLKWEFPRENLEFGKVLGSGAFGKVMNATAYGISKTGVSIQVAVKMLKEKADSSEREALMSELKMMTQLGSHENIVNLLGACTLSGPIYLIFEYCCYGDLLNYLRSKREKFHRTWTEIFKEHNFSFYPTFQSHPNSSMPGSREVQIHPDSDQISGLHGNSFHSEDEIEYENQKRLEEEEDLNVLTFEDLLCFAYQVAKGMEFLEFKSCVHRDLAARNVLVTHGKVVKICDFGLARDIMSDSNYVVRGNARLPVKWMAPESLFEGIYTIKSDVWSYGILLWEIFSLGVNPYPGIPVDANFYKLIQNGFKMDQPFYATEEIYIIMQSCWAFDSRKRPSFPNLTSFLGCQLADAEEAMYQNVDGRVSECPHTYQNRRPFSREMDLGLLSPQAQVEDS
Kind of test: Kinase inhibition assay, Flt3 (h) (Millipore, 33P-ATP filter assay). In kind it is biochemical. The protocol:
as §1
as §2, with “μL, Flt3” for “μL, Flt4”, “EDTA, 50” for “EDTA, 500”, “μM EAIYAAPFAKKK,” for “μM GGEEEEYFELVKKKK,”

Test [1] concerns human HT29 colon carcinoma cells. Kind of test: HT29 colony forming assay. The conditions noted are these: HT-29, 240 h, 10 days incubation, colonies counted. It is filed as cell-based. The protocol: The ability of compounds of the invention to prevent growth of discrete colonies of human HT29 colon carcinoma cells over a 10 day time course can be measured using the following protocol: • 1. HT29 cells (ECACC No. 91072201) are seeded in 24-well plates at a concentration of 75 cells per well and allowed to adhere overnight prior to addition of compound or vehicle control. • 2. Test compounds are prepared from 10 mM DMSO stocks to give a final concentration range of 10 μM, 3 μM, 1 μM, 0.3 μM, 0.1 μM, 0.03 μM, 0.01 μM and vehicle control. The DMSO content is constant at 0.1%. • 3. Test compounds are incubated with the cells for 10 days at 37° C. 5% CO2 in a humidified atmosphere. • 4. Colonies are fixed using Carnoy's Fixative (75% methanol, 25% acetic acid) for 5 minutes, and allowed to air dry. • 5. Colonies are stained using 0.4% (w/v) crystal violet for 2 minutes. • 6. Colonies (containing more than 50 cells) are counted by eye and data analysed using a 4-parameter logistic equation in GraphPad Prism.

The structures appear in SMILES notation. Bounds are passed on as bounds.

T1 sequence (P35916 25-1363): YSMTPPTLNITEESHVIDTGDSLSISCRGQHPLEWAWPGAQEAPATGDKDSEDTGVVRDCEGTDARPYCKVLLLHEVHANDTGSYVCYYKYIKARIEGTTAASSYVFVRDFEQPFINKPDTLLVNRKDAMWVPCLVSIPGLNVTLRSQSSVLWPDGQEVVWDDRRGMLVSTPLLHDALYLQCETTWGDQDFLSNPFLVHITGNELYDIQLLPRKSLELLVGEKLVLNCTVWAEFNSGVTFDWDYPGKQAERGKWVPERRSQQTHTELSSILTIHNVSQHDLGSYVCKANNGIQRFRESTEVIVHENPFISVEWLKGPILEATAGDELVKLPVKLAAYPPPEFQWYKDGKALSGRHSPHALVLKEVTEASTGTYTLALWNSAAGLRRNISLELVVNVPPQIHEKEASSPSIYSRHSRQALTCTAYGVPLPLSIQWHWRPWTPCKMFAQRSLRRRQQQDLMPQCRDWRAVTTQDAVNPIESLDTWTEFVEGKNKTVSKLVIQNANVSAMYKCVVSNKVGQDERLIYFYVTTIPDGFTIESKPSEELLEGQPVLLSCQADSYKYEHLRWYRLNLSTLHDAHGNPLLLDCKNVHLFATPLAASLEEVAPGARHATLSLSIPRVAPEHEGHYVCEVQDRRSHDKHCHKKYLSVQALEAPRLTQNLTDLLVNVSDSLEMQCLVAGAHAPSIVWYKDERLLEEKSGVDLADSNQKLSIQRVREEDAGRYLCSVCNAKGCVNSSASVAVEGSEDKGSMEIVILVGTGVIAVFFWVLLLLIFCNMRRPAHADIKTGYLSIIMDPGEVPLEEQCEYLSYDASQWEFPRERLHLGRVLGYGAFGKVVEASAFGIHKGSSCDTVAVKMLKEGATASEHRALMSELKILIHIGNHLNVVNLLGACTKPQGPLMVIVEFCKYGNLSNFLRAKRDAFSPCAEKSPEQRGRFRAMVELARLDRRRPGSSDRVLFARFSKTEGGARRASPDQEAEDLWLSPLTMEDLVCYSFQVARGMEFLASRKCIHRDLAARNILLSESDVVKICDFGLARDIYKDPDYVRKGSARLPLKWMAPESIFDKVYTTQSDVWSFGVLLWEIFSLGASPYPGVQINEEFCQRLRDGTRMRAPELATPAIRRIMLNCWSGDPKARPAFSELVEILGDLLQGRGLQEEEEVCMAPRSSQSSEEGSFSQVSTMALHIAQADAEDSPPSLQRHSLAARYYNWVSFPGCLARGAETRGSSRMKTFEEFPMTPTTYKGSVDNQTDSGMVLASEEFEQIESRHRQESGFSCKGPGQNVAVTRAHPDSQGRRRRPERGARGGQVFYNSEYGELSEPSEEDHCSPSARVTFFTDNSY

Regarding `c1ccc2cc(Nc3cc(CN4CCCC4)ccn3)ncc2c1` [Example 1, Isoquinolin-3-yl-(4-pyrrolidin-1-ylmethyl-pyridin-2-yl)-amine], the IC50 was less than 500 nM against Flt4 (h); less than 5000 nM on Yes (h); less than 25000 nM with HCT116 cells; less than 5000 nM at KDR (h); less than 100 nM against Flt3 (h); 1380 nM in test [1].
With `Clc1ccc2cc(Nc3cc(CN4CCCC4)ccn3)ncc2c1` [Example 14, 7-Chloroisoquinolin-3-yl-(4-pyrrolidin-1-ylmethyl-pyridin-2-yl)-amine], the IC50 at Flt4 (h) was more than 100 nM; against Flt3 (h), less than 100 nM.
Taken in the same sequence, the figures for `COc1ccc2cnc(Nc3cc(CN4CCCC4)ccn3)cc2c1` [Example 17, (6-Methoxy-isoquinolin-3-yl)-(4-pyrrolidin-1-ylmethyl-pyridin-2-yl)-amine] were less than 100 nM and less than 100 nM.
Taken in the same sequence, the figures for `Fc1ccc2cc(Nc3cc(CN4CCCC4)ccn3)ncc2c1` [Example 18, 7-Fluoroisoquinolin-3-yl-(4-pyrrolidin-1-ylmethyl-pyridin-2-yl)-amine] were less than 100 nM and less than 100 nM.
For `CNC(=O)N1CCN(Cc2ccnc(Nc3cc4ccccc4cn3)c2)CC1` [Example 19, 4-[2-(Isoquinolin-3-ylamino)-pyridin-4-ylmethyl]-piperazine-1-carboxylic acid methylamide] the same measures were less than 100 nM and less than 100 nM.
Regarding `CN(C)C(=O)N1CCN(Cc2ccnc(Nc3cc4ccccc4cn3)c2)CC1` [Example 20, 4-[2-(Isoquinolin-3-ylamino)-pyridin-4-ylmethyl]-piperazine-1-carboxylic acid dimethylamide], the IC50 on Flt4 (h) and against Flt3 (h) was less than 100 nM in each case.
Regarding `c1ccc2cc(Nc3cc(CN4CCNCC4)ccn3)ncc2c1` [Example 21B, Isoquinolin-3-yl-(4-piperazin-1-ylmethyl-pyridin-2-yl)-amine], the IC50 is less than 500 nM against Flt4 (h) and less than 5000 nM on Flt3 (h).
Taken in the same sequence, the figures for `NC(=O)N1CCN(Cc2ccnc(Nc3cc4ccccc4cn3)c2)CC1` [Example 21C, 4-[2-(Isoquinolin-3-ylamino)-pyridin-4-ylmethyl]-piperazine-1-carboxylic acid amide] were less than 500 nM and less than 100 nM.
Taken in the same sequence, the figures for `CC(=O)N1CCN(Cc2ccnc(Nc3cc4ccccc4cn3)c2)CC1` [Example 22, 1-[4-[2-(Isoquinolin-3-ylamino)-pyridin-4-ylmethyl]-piperazin-1-yl]-ethanone] were less than 500 nM and less than 100 nM.
Taken in the same sequence, the figures for `O=C(CO)N1CCN(Cc2ccnc(Nc3cc4ccccc4cn3)c2)CC1` [Example 23B, 2-Hydroxy-1-{4-[2-(isoquinolin-3-ylamino)-pyridin-4-ylmethyl]-piperazin-1-yl}-ethanone] were less than 100 nM and less than 100 nM.
